The test system of one test is DEL. The test is described as follows: In vitro cytotoxicity, CellTiter-Glo, 96 h. The class given is cell-based. The conditions noted are these: Table 6. Here is the method: (§1) In vitro potency was assessed on multiple cancer cell lines. All cell lines were authenticated by STR profiling at IDEXX Bioresearch and cultured for no more than 2 months after resuscitation. Cells cultured in log-phase growth were seeded for 24 hours in 96-well plates containing 150 μl RPMI 1640 supplemented with 20% FBS. Serial dilutions of antibody-drug conjugates in cell culture media were prepared at 4× working concentrations, and 50 μl of each dilution was added to the 96-well plates. Following addition of test articles, cells were incubated with test articles for 4 days at 37° C. After 96 hours, growth inhibition was assessed by CellTiter-Glo® (Promega, Madison, WI) and luminescence was measured on a plate reader. The EC50 value, determined in triplicate, is defined here as the concentration that results in 50% reduction in cell growth relative to untreated controls.
(§2) In the following Tables IC50 values for ADCs and CPT free drugs are given in ng/mL and […] concentrations, respectively, with parenthetic values representing percent cells remaining at the highest concentration tested (1000 ng/mL for ADCs and 1 μM for CPT free compound, unless otherwise indicated) relative to untreated cells. Cell viability was determined by CellTiter-Glo staining after 96 h exposure to ADC. ND=Not Determined. […]

Test [1] concerns DEL-BVR (DEL brentuximab vedotin resistant line). Description: In vitro cytotoxicity on MDR+ line, CellTiter-Glo, 96 h. In kind it is cell-based. The conditions noted are these: Table 6. The procedure: as §1, §2
For orientation: ATP-based viability assays read luminescence as a measure of living cells.

[2] abbreviates: 1000 ng/mL, relative to untreated cells.

As to “Ag2-vcMMAE (8): vcMMAE conjugate on Ag2; "Ag2 refers to cAC10, which targets the CD30 antigen"”, the “percent cells remaining at the highest dose tested, DEL” value in the test on DEL (setting [2]) is 1%. Moreover, in the test with DEL (Ag2(+) parental DEL, 96 h), the “IC50 DEL” value came out at 0.0005 µg/mL. In addition, the “percent cells remaining at the highest dose tested, DEL/BVR” value in test [1] (setting [2]) worked out at 93%. Further, the “IC50 DEL/BVR” value in test [1] (Ag2(+), MDR(+) DEL-BVR, 96 h) was over 1 µg/mL.

(Values after patent US20250073348A1, “CAMPTOTHECIN CONJUGATES” (priority 2018, published 2025).)
